Experimental data from PubChem BioAssay AID248 (DTP/NCI, 2004).
Several values for one entry are separate records, joined by “and”; a condition that tells them apart may be missing. Equal values may be shown once. Toxic doses and inconclusive results are not listed. Cut-off read from the data, not from the text of the source: active = T/C of 150% or more; inactive = T/C below 125%.

System: L1210 leukemia ip in BDF1 mice, survival T/C
Experiment: NCI In Vivo Anticancer Drug Screen. Data for tumor model L1210 Leukemia (intraperitoneal) in B6D2F1 (BDF1) mice
Settings: endpoint: mean survival time, higher = longer survival
Summary of the method: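 In this screen, tumor-bearing mice given compound are compared to those given vehicle, and their survival values are reported as a treated-to-control quotient.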

[1] = dose: 25.0 mg/kg/injection, schedule: Q04DX003 (ip), vehicle: Klucel (hydroxypropylcellulose) (HPC)
[2] = dose: 50.0 mg/kg/injection, schedule: Q04DX003 (ip), vehicle: Klucel (hydroxypropylcellulose) (HPC)
[3] = dose: 100.0 mg/kg/injection, schedule: Q01DX009 (ip), vehicle: saline with Tween-80
[4] = dose: 200.0 mg/kg/injection, schedule: Q01DX009 (ip), vehicle: saline with Tween-80
[5] = dose: 400.0 mg/kg/injection, schedule: Q01DX009 (ip), vehicle: saline with Tween-80
[6] = dose: 100.0 mg/kg/injection, schedule: Q01DX001 (ip), vehicle: other
[7] = dose: 200.0 mg/kg/injection, schedule: Q01DX001 (ip), vehicle: other
[8] = dose: 400.0 mg/kg/injection, schedule: Q01DX001 (ip), vehicle: other
[9] = dose: 100.0 mg/kg/injection, schedule: Q01DX001 (ip), vehicle: carboxymethylcellulose (CMC)
[10] = dose: 200.0 mg/kg/injection, schedule: Q01DX001 (ip), vehicle: carboxymethylcellulose (CMC)

Measured: T/C

CCOC(=O)c1ccc(NC(C)=O)o1
inactive: dose: 10.0 mg/kg/injection, schedule: Q01DX001 (ip), vehicle: carboxymethylcellulose (CMC) 107 % of control | dose: 20.0 mg/kg/injection, schedule: Q01DX001 (ip), vehicle: carboxymethylcellulose (CMC) 95 % of control | dose: 40.0 mg/kg/injection, schedule: Q01DX001 (ip), vehicle: carboxymethylcellulose (CMC) 103 % of control | dose: 80.0 mg/kg/injection, schedule: Q01DX001 (ip), vehicle: carboxymethylcellulose (CMC) 92 % of control

COC(=O)CC(=O)C(Cl)C(=O)OC (centres undefined)
inactive: dose: 50.0 mg/kg/injection, schedule: Q01DX009 (ip), vehicle: saline 97 % of control | dose: 100.0 mg/kg/injection, schedule: Q01DX009 (ip), vehicle: saline 108 % of control

C[N+]12CCCc3cc(CO)cc(c31)CCC2
inactive: dose: 12.5 mg/kg/injection, schedule: Q01DX009 (ip), vehicle: Klucel (hydroxypropylcellulose) (HPC) 101 % of control | dose: 12.5 mg/kg/injection, schedule: Q04DX003 (ip), vehicle: Klucel (hydroxypropylcellulose) (HPC) 97 % of control | dose: 25.0 mg/kg/injection, schedule: Q01DX009 (ip), vehicle: Klucel (hydroxypropylcellulose) (HPC) 105 % of control | [1] 92 % of control | [2] 97 % of control

O=[N+]([O-])OCc1c(Cl)nc(Cl)c(Cl)c1Cl
inactive: dose: 20.0 mg/kg/injection, schedule: Q01DX009 (ip), vehicle: Klucel (hydroxypropylcellulose) (HPC) 103 % of control | dose: 40.0 mg/kg/injection, schedule: Q01DX009 (ip), vehicle: Klucel (hydroxypropylcellulose) (HPC) 92 % of control | dose: 100.0 mg/kg/injection, schedule: Q04DX003 (ip), vehicle: Klucel (hydroxypropylcellulose) (HPC) 92 % of control | dose: 200.0 mg/kg/injection, schedule: Q04DX003 (ip), vehicle: Klucel (hydroxypropylcellulose) (HPC) 100 % of control

Cc1cc(Cl)c(Cl)cc1NC(=O)c1ccc(Cl)cc1Cl
inactive: dose: 100.0 mg/kg/injection, schedule: Q04DX002 (ip), vehicle: Klucel (hydroxypropylcellulose) (HPC) 108 % of control | dose: 200.0 mg/kg/injection, schedule: Q04DX002 (ip), vehicle: Klucel (hydroxypropylcellulose) (HPC) 94 % of control | dose: 400.0 mg/kg/injection, schedule: Q04DX002 (ip), vehicle: Klucel (hydroxypropylcellulose) (HPC) 108 % of control

c1ccc(C2(c3ccccc3)CC([P+](c3ccccc3)(c3ccccc3)c3ccccc3)=NN2CC[P+](c2ccccc2)(c2ccccc2)c2ccccc2)cc1
inactive: dose: 1.56 mg/kg/injection, schedule: Q01DX001 (ip), vehicle: saline 107 % of control | dose: 3.12 mg/kg/injection, schedule: Q01DX001 (ip), vehicle: saline 91 % of control | dose: 6.25 mg/kg/injection, schedule: Q01DX001 (ip), vehicle: saline 108 % of control and 91 % of control

COc1ccccc1OC(=O)Nc1ccccc1F
inactive: [3] 97 % of control | [4] 96 % of control | [5] 118 % of control

COc1ccc(C(C)=O)c(OC)c1C
inactive: dose: 100.0 mg/kg/injection, schedule: Q04DX003 (ip), vehicle: saline 95 % of control | dose: 200.0 mg/kg/injection, schedule: Q04DX003 (ip), vehicle: saline 90 % of control | dose: 400.0 mg/kg/injection, schedule: Q04DX003 (ip), vehicle: saline 98 % of control

CC#N.CC#N.[Cl][Pt][Cl]
inactive: dose: 6.25 mg/kg/injection, schedule: Q04DX003 (ip), vehicle: water 119 % of control | dose: 12.5 mg/kg/injection, schedule: Q04DX003 (ip), vehicle: water 117 % of control | dose: 25.0 mg/kg/injection, schedule: Q04DX003 (ip), vehicle: water 122 % of control | dose: 50.0 mg/kg/injection, schedule: Q04DX003 (ip), vehicle: water 118 % of control

COc1cc(C=C(C#N)C#N)cc(I)c1O
inactive: [1] 98 % of control | [2] 104 % of control

CCSc1ccc2c(cc1=O)C(NC(C)=O)CCc1cc(OC)c(OC)c(OC)c1-2 (centres undefined)
inactive: dose: 25.0 mg/kg/injection, schedule: Q04DX002 (ip), vehicle: Klucel (hydroxypropylcellulose) (HPC) 105 % of control | dose: 50.0 mg/kg/injection, schedule: Q04DX002 (ip), vehicle: Klucel (hydroxypropylcellulose) (HPC) 102 % of control

Cc1ccc(Nc2nc(N)nc(N)c2N=O)cc1C
inactive: dose: 100.0 mg/kg/injection, schedule: Q01DX Z (ip), vehicle: methylcellulose (MC) 116 % of control | dose: 200.0 mg/kg/injection, schedule: Q01DX001 (ip), vehicle: Klucel (hydroxypropylcellulose) (HPC) 106 % of control | dose: 200.0 mg/kg/injection, schedule: Q01DX Z (ip), vehicle: methylcellulose (MC) 98 % of control

COc1ccc(-c2sc(/N=C/c3cc(OC)c(OC)c(OC)c3)c(C#N)c2C)cc1OC
inactive: [3] 98 % of control and 103 % of control | dose: 100.0 mg/kg/injection, schedule: Q04DX002 (ip), vehicle: saline with Tween-80 93 % of control and 88 % of control | [4] 100 % of control and 88 % of control | dose: 200.0 mg/kg/injection, schedule: Q04DX002 (ip), vehicle: saline with Tween-80 93 % of control | [5] 92 % of control and 87 % of control | dose: 400.0 mg/kg/injection, schedule: Q04DX002 (ip), vehicle: saline with Tween-80 94 % of control and 104 % of control

COc1ccc(OC)c(NC(=O)c2cccc(N(CCCl)CCCl)c2)c1
inactive: [6] 98 % of control | [7] 95 % of control | [8] 104 % of control

COc1ccc(C(C)=O)c(O)c1C
inactive: [3] 111 % of control | [4] 94 % of control | [5] 92 % of control

CC12CCC3(CCC4(C)C(=C3C1)CCC1C3(C)CCC(OC5OC(CO)C(O)C(O)C5O)C(C)(C)C3CCC14C)C(=O)O2 (centres undefined)
inactive: dose: 50.0 mg/kg/injection, schedule: Q01DX009 (ip), vehicle: saline with Tween-80 104 % of control | [3] 108 % of control | [4] 114 % of control

CCOC(=O)c1ccc(N(CCC(=O)COC(C)=O)C(C)=O)cc1
inactive: [9] 94 % of control | [10] 100 % of control | dose: 400.0 mg/kg/injection, schedule: Q01DX001 (ip), vehicle: carboxymethylcellulose (CMC) 102 % of control

O=C(O)c1ccc2c(c1)OCO2
inactive: dose: 100.0 mg/kg/injection, schedule: Q01DX009 (ip), vehicle: Klucel (hydroxypropylcellulose) (HPC) 97 % of control | dose: 200.0 mg/kg/injection, schedule: Q01DX009 (ip), vehicle: Klucel (hydroxypropylcellulose) (HPC) 92 % of control | dose: 400.0 mg/kg/injection, schedule: Q01DX009 (ip), vehicle: Klucel (hydroxypropylcellulose) (HPC) 99 % of control

COc1ccccc1C1N(C)CCCN1C
inactive: dose: 6.25 mg/kg/injection, schedule: Q04DX003 (ip), vehicle: saline 96 % of control | dose: 12.5 mg/kg/injection, schedule: Q04DX003 (ip), vehicle: saline 92 % of control | dose: 25.0 mg/kg/injection, schedule: Q04DX003 (ip), vehicle: saline 101 % of control

O=C1CCC(=O)N1CCc1csc2ccccc12
inactive: [9] 110 % of control | dose: 177.6 mg/kg/injection, schedule: Q01DX001 (ip), vehicle: carboxymethylcellulose (CMC) 95 % of control and 92 % of control | [10] 96 % of control | dose: 266.8 mg/kg/injection, schedule: Q01DX001 (ip), vehicle: carboxymethylcellulose (CMC) 93 % of control and 94 % of control | dose: 600.0 mg/kg/injection, schedule: Q01DX001 (ip), vehicle: carboxymethylcellulose (CMC) 101 % of control and 91 % of control

CCCCC(C#N)C(O)C1CCCCC1 (centres undefined)
inactive: [6] 100 % of control | [7] 103 % of control | [8] 103 % of control

O=C(NCC(O)CI)c1ccc([N+](=O)[O-])cc1 (centres undefined)
inactive: [3] 104 % of control | [4] 102 % of control | [5] 89 % of control

CCOCCOCCOC(C)Oc1cccc(OC)c1 (centres undefined)
inactive: dose: 100.0 mg/kg/injection, schedule: Q04DX002 (ip), vehicle: saline 107 % of control | dose: 200.0 mg/kg/injection, schedule: Q04DX002 (ip), vehicle: saline 101 % of control | dose: 400.0 mg/kg/injection, schedule: Q04DX002 (ip), vehicle: saline 96 % of control
